Data taken from the NIST ThermoML archive (doi:10.1021/je501161t).

Test: mn = molality of the nth substance listed, in mol/kg
Details: 100 kPa, Liquid, Vibrating tube method

CCCCCCn1cc[n+](C)c1.[Br-] [3-hexyl-1-methyl-1H-imidazolium bromide] + O
mass density [kg/m3]
Details | m1 = 0.0314 | m1 = 0.0515 | m1 = 0.0703 | m1 = 0.0881 | m1 = 0.1098 | m1 = 0.131 | m1 = 0.1505 | m1 = 0.1711 | m1 = 0.1903
288.15 K | 1000.58 | 1001.52 | 1002.4 | 1003.23 | 1004.23 | 1005.18 | 1006.08 | 1007 | 1007.87
298.15 K | 998.466 | 999.368 | 1000.21 | 1001 | 1001.96 | 1002.88 | 1003.74 | 1004.64 | 1005.47
308.15 K | 995.404 | 996.284 | 997.097 | 997.858 | 998.787 | 999.688 | 1000.5 | 1001.4 | 1002.2
318.15 K | 991.535 | 992.389 | 993.185 | 993.932 | 994.837 | 995.704 | 996.521 | 997.358 | 998.139

CCCCn1cc[n+](C)c1.[Cl-] [1-butyl-3-methylimidazolium chloride] + O
mass density [kg/m3]
Details | 288.15 K | 298.15 K | 308.15 K | 318.15 K
m1 = 0.0323 | 999.529 | 997.423 | 994.372 | 990.507
m1 = 0.0586 | 999.875 | 997.736 | 994.658 | 990.768
m1 = 0.0739 | 1000.08 | 997.92 | 994.834 | 990.922
m1 = 0.0899 | 1000.29 | 998.113 | 995.007 | 991.091
m1 = 0.1048 | 1000.49 | 998.297 | 995.182 | 991.26
m1 = 0.1254 | 1000.76 | 998.55 | 995.409 | 991.473
m1 = 0.1437 | 1001.01 | 998.776 | 995.622 | 991.68
m1 = 0.1687 | 1001.33 | 999.091 | 995.913 | 991.942
m1 = 0.1789 | 1001.47 | 999.214 | 996.039 | 992.06
m1 = 0.191 | 1001.63 | 999.373 | 996.185 | 992.216
m1 = 0.2204 | 1002.03 | 999.752 | 996.541 | 992.538

CCCCn1cc[n+](C)c1.F[B-](F)(F)F [1-butyl-3-methylimidazolium tetrafluoroborate] + O
mass density [kg/m3]
Details | m1 = 0.0311 | m1 = 0.0527 | m1 = 0.072 | m1 = 0.0904 | m1 = 0.1103 | m1 = 0.1326 | m1 = 0.1525 | m1 = 0.1788
288.15 K | 1000.38 | 1001.26 | 1002.03 | 1002.76 | 1003.54 | 1004.4 | 1005.17 | 1006.16
298.15 K | 998.274 | 999.116 | 999.86 | 1000.56 | 1001.31 | 1002.13 | 1002.86 | 1003.82
308.15 K | 995.194 | 995.999 | 996.713 | 997.385 | 998.11 | 998.921 | 999.635 | 1000.58
318.15 K | 991.332 | 992.114 | 992.809 | 993.467 | 994.171 | 994.948 | 995.643 | 996.555

CCCCn1cc[n+](C)c1.[Br-] [1-butyl-3-methylimidazolium bromide] + O
mass density [kg/m3]
Details | m1 = 0.0317 | m1 = 0.0585 | m1 = 0.073 | m1 = 0.0916 | m1 = 0.114 | m1 = 0.1319 | m1 = 0.1508 | m1 = 0.1706 | m1 = 0.191
288.15 K | 1000.71 | 1002.05 | 1002.78 | 1003.7 | 1004.8 | 1005.69 | 1006.6 | 1007.56 | 1008.55
298.15 K | 998.612 | 999.924 | 1000.63 | 1001.53 | 1002.61 | 1003.47 | 1004.36 | 1005.3 | 1006.26
308.15 K | 995.556 | 996.84 | 997.535 | 998.413 | 999.47 | 1000.32 | 1001.19 | 1002.12 | 1003.07
318.15 K | 991.699 | 992.959 | 993.641 | 994.509 | 995.544 | 996.382 | 997.243 | 998.148 | 999.08

CCCCCCCCn1cc[n+](C)c1.[Br-] [1-methyl-3-octylimidazolium bromide] + O
mass density [kg/m3]
Details | m1 = 0.0323 | m1 = 0.0501 | m1 = 0.0722 | m1 = 0.0908 | m1 = 0.1112 | m1 = 0.1301 | m1 = 0.1485 | m1 = 0.1707 | m1 = 0.191
288.15 K | 1000.51 | 1001.28 | 1002.24 | 1003.03 | 1003.9 | 1004.69 | 1005.47 | 1006.39 | 1007.25
298.15 K | 998.383 | 999.121 | 1000.02 | 1000.77 | 1001.6 | 1002.36 | 1003.08 | 1003.99 | 1004.77
308.15 K | 995.284 | 995.975 | 996.827 | 997.539 | 998.314 | 999.033 | 999.725 | 1000.54 | 1001.3
318.15 K | 991.366 | 992.011 | 992.796 | 993.46 | 994.171 | 994.852 | 995.483 | 996.26 | 996.981

COS(=O)(=O)[O-].Cn1cc[n+](C)c1 [1,3-dimethylimidazolium methylsulfate] + O
mass density [kg/m3]
Details | m1 = 0.0333 | m1 = 0.052 | m1 = 0.0743 | m1 = 0.0945 | m1 = 0.1147 | m1 = 0.1309 | m1 = 0.1517 | m1 = 0.1791
288.15 K | 1000.78 | 1001.71 | 1002.81 | 1003.79 | 1004.77 | 1005.55 | 1006.54 | 1007.82
298.15 K | 998.673 | 999.578 | 1000.65 | 1001.61 | 1002.57 | 1003.33 | 1004.3 | 1005.56
308.15 K | 995.619 | 996.505 | 997.553 | 998.494 | 999.435 | 1000.18 | 1001.14 | 1002.38
318.15 K | 991.771 | 992.648 | 993.684 | 994.617 | 995.542 | 996.28 | 997.222 | 998.46

CCOS(=O)(=O)[O-].CCn1cc[n+](C)c1 [1-ethyl-3-methylimidazolium ethyl sulfate] + O
mass density [kg/m3]
Details | m1 = 0.0313 | m1 = 0.0499 | m1 = 0.0682 | m1 = 0.0901 | m1 = 0.1095 | m1 = 0.1322
288.15 K | 1000.55 | 1001.4 | 1002.22 | 1003.21 | 1004.08 | 1005.09
298.15 K | 998.448 | 999.27 | 1000.07 | 1001.04 | 1001.87 | 1002.86
308.15 K | 995.398 | 996.212 | 996.995 | 997.93 | 998.762 | 999.712
318.15 K | 991.566 | 992.377 | 993.169 | 994.105 | 994.936 | 995.897
